According to patent US20260091086A1, “POLYPEPTIDE COMBINATIONS AND USES THEREOF” (MEDIMMUNE LIMITED, priority 2024, published 2026):
Numbered stars: 1 amine (or outer) side, 2 acyl side, 3 side chain; on linkers, the order of the positions; unused ones are H or OH. Square brackets hold non-standard residues; d marks the D form. Side chains are listed from the residue outwards. Ends that are not written are not given here. * marks the point of attachment. C18 diacid = O=C(O)CCCCCCCCCCCCCCCCC(=O)*; γGlu = O=C(O)[C@H](CCC(=O)[*:2])N[*:1]; αMeF = C[C@](N)(Cc1ccccc1)C(=O)O; AEEA = NCCOCCOCC(=O)O; Aib = CC(C)(N)C(=O)O

How the values were obtained:
[1] = test system: Wistar Han rats; assay: Example 4: 3-month subcutaneous study, body weight; assay type: in vivo, rat; settings: for Body Weight Comparison, Day 92 vs. Control Group 1 Day 92 / Body Weight Gain (Day 92 vs Day −1) / Mean Body Weight at Day 92: dose levels 0/5, Group 5
Method: Study Design: Male (9-11 weeks of age) and female (10-11 weeks of age) Wistar Han rats were SC administered with Vehicle/Vehicle (group 1—for LAA of SEQ ID NO: 11 and GLP-1/GCG of SEQ ID NO: 35), LAA of SEQ ID NO: 11 and GLP-1/GCG of SEQ ID NO: 35 (group 2—500 and 5 μg/kg respectively), LAA of SEQ ID NO: 11 and GLP-1/GCG of SEQ ID NO: 35 (group 3—2000 and 5 μg/kg respectively), SEQ ID NO: 11 and Vehicle for SEQ ID NO: 35 (group 4—2000 μg/kg and 0 μg/kg respectively), or Vehicle for SEQ ID NO: 11 and SEQ ID NO: 35 (group 5—0 and 5 μg/kg respectively) daily for 91 days. Dosing for LAA of SEQ ID NO: 11 was dose escalated with group 2 receiving 250 μg/kg from day 1-5 and 500 μg/kg for duration of study, and groups 3 and 4 receiving 250 μg/kg SEQ ID NO: 11 from day 1-5, 500 μg/kg SEQ ID NO: 11 from days 7-13 and 2000 μg/kg for duration of study. There was a n=10/group per gender.

[2] = target: rat amylin receptor (calcitonin receptor plus RAMP3) (rat) (UniProt P32214); assay: cell-based or functional assay
rat amylin receptor (calcitonin receptor plus RAMP3) (rat), sequence (P32214 25-516, chain 1 of 2): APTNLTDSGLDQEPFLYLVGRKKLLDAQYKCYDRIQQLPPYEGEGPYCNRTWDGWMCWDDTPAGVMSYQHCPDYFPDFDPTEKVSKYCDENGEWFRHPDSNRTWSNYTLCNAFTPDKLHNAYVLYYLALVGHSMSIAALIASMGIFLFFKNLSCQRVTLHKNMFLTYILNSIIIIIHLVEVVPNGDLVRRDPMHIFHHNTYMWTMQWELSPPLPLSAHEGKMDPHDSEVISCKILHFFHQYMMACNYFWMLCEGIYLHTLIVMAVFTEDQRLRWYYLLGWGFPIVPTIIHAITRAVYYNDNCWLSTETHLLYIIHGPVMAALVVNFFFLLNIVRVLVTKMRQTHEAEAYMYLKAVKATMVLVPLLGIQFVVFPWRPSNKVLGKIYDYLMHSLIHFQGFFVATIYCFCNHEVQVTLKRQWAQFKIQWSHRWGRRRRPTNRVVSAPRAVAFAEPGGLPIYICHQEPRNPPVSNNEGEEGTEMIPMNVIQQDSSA
rat amylin receptor (calcitonin receptor plus RAMP3) (rat), sequence (Q9JJ73 23-147, chain 2 of 2, further chain): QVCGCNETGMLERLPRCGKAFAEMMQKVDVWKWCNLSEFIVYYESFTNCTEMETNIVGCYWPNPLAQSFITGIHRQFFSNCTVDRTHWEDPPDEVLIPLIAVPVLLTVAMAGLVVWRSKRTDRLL

[3] = target: human amylin receptor 3 (hAMY3R; complex of hCTR and hRAMP3) (human); assay: cell-based or functional assay
human amylin receptor 3 (hAMY3R; complex of hCTR and hRAMP3) (human), sequence (chain, as listed by the source limits assumed, chain 1 of 2): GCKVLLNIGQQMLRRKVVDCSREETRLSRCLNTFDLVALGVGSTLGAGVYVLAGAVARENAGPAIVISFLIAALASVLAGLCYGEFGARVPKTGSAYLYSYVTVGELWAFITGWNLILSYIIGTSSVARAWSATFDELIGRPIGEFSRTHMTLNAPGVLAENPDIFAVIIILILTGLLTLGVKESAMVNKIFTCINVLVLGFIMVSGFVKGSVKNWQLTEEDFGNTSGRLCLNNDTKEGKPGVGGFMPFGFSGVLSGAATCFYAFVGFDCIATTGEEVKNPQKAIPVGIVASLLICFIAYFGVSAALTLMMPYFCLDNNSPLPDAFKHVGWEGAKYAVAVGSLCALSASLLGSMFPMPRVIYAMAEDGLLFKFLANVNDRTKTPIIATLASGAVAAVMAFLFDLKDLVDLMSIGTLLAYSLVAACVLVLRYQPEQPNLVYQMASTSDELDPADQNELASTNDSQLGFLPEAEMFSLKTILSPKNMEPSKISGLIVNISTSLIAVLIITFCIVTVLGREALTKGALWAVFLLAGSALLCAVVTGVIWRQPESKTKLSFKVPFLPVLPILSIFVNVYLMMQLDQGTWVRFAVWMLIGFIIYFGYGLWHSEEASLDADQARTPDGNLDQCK
human amylin receptor 3 (hAMY3R; complex of hCTR and hRAMP3) (human), sequence (chain, as listed by the source limits assumed, chain 2 of 2): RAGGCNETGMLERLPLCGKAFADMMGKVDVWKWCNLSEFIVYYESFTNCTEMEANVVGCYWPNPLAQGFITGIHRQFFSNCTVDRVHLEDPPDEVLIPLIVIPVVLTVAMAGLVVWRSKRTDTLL

[4] = test system: AMY3R/CTR; assay: Relative potency ratio, cAMP accumulation assays with 0.1% BSA, rat receptors; assay type: cell-based; settings: 0.1% bovine serum albumin, n ≥ 5; potencies relative to pramlintide 100%
Method: Target engagement was estimated in the following way for each compound. The maximum concentration (Cmax) after subcutaneous injection was measured in separate rat pharmacokinetic studies and was dose-adjusted to the tested dose levels when appropriate, assuming dose linearity. Plasma protein binding was determined in vitro using 3B Pharmaceutical's Escalate Equilibrium Shift Assay or an in-house Surface Plasmon Resonance (SPR) assay. Peptide in vitro potency was determined via HTRF CAMP accumulation assay using HEK293 cells recombinantly expressing the rat calcitonin receptor or rat amylin receptor (calcitonin receptor plus RAMP3) in saline buffer containing 0.1% bovine serum albumin. The in vitro potencies (IC50s) for amylin and calcitonin were adjusted to unbound values by taking into account the albumin concentration in the assay and fraction unbound data, according to an established method (Wan H and Bergström F (2007), High Throughput Screening of Drug-Protein Binding in Drug Discovery, Journal of Liquid Chromatography & Related Technologies, 30:5, 681-700; doi: 10.1080/10826070701190989). Finally, the target engagement was calculated as the unbound Cmax divided by the unbound IC50, both for amylin and calcitonin. The Emax model was defined as aversion=E0+Emax×(ENG^h/(ENG^h+ED50^h)), where E0 is the baseline aversion, Emax is the maximum induced aversion, ENG is the receptor engagement, and h is the slope (Hill) parameter. Parameter estimation was performed according to a maximum likelihood approach with an additive error model, incorporating data from all compounds simultaneously. Uncertainty of parameter estimates was determined by bootstrapping, sampling single measurements randomly with replacement within each experiment (N=500). Numeric analyses were performed in MATLAB (R2023b; The MathWorks, Natick, MA). The aversion data are given as mean and standard error (N=9-11 per group). In this experiment, the LAA/SARA1 was that of SEQ ID NO: 11, SARA2 was eloralintide, DACRA1 was cagrilintide, and DACRA2 was petrelintide.

[5] = test system: AMY3R/CTR; assay: Relative potency ratio, cAMP accumulation assays with 0.1% BSA, human receptors; assay type: cell-based; settings: 0.1% bovine serum albumin, n ≥ 5; potencies relative to pramlintide 100%
[6] = test system: DIO rats; assay: Example 7: 28-day LAA and GLP/GIP dual agonist study; assay type: in vivo, rat; settings: for body weight change: day 28
Method: Study Design: Male rats were fed a high-fat diet (45% kcal fat-D12451; Research Diets) or chow control matched diet (10% kcal fat-D12450K; […] Control rats were dosed SC with Vehicle. Body weight was monitored daily through-out study and body composition measured by EchoMRI at baseline (week-1) and end of study (week 4). […]

[7] = GLP/GIP mono-treatment 2 nmol/kg
[8] = GLP/GIP mono-treatment 30 nmol/kg

Row | Relative potency ratio (AMY3R/CTR), Rat; cAMP accumulation assay, 0.1% BSA [2] | Relative potency ratio (AMY3R/CTR), Human; cAMP accumulation assay, 0.1% BSA [3] | Relative potency ratio (AMY3R/CTR), Rat [4] | Relative potency ratio (AMY3R/CTR), Human [5] | Compound | also measured
1 | – | – | – | – | H(Aib)QGTFTSDVSK(αMePhe)LDTK(O2Oc-O2Oc-γE-C18diacid)RARDFVQWLLE(Aib)G-acid (H[Aib]QGTFTSDVSK[αMeF]LDTK([AEEA-AEEA-γGlu-C18 diacid])RARDFVQWLLE[Aib]G-OH; N-terminus assumed; SMILES CC(C)C[C@H](NC(=O)[C@H](Cc1c[nH]c2ccccc12)NC(=O)[C@H](CCC(N)=O)NC(=O)[C@@H](NC(=O)[C@H](Cc1ccccc1)NC(=O)[C@H](CC(=O)O)NC(=O)[C@H](CCCNC(=N)N)NC(=O)[C@H](C)NC(=O)[C@H](CCCNC(=N)N)NC(=O)[C@H](CCCCNC(=O)COCCOCCNC(=O)COCCOCCNC(=O)CC[C@H](NC(=O)CCCCCCCCCCCCCCCCC(=O)O)C(=O)O)NC(=O)[C@@H](NC(=O)[C@H](CC(=O)O)NC(=O)[C@H](CC(C)C)NC(=O)[C@](C)(Cc1ccccc1)NC(=O)[C@H](CCCCN)NC(=O)[C@H](CO)NC(=O)[C@@H](NC(=O)[C@H](CC(=O)O)NC(=O)[C@H](CO)NC(=O)[C@@H](NC(=O)[C@H](Cc1ccccc1)NC(=O)[C@@H](NC(=O)CNC(=O)[C@H](CCC(N)=O)NC(=O)C(C)(C)NC(=O)[C@@H](N)Cc1c[nH]cn1)[C@@H](C)O)[C@@H](C)O)C(C)C)[C@@H](C)O)C(C)C)C(=O)N[C@@H](CC(C)C)C(=O)N[C@@H](CCC(=O)O)C(=O)NC(C)(C)C(=O)NCC(=O)O) [GLP-1/GCG of SEQ ID NO: 35] | Body weight at study day 92 vs Vehicle ([1]; both male and female, groups 2-5): significantly lower; Body Weight Comparison, Day 92 vs. Control Group 1 Day 92 ([1]; female): 90%; Body Weight Gain (Day 92 vs Day −1) ([1]; female): 112%; Mean Body Weight at Day 92 ([1]; female): 225.4 grams; Body Weight Comparison, Day 92 vs. Control Group 1 Day 92 ([1]; male): 80%; Body Weight Gain (Day 92 vs Day −1) ([1]; male): 119%; Mean Body Weight at Day 92 ([1]; male): 325.5 grams
2 | 0.03 | 0.05 | – | – | DACRA 2 (petrelintide) (peptide) | –
3 | – | – | 1.0 | 1.0 | CC[C@H](C)[C@H](NC(=O)[C@@H]1CCCN1C(=O)CNC(=O)[C@H](Cc1ccccc1)NC(=O)[C@H](CC(N)=O)NC(=O)[C@H](CC(N)=O)NC(=O)[C@H](CO)NC(=O)[C@H](CO)NC(=O)[C@H](Cc1c[nH]cn1)NC(=O)[C@@H](NC(=O)[C@H](CC(C)C)NC(=O)[C@H](Cc1ccccc1)NC(=O)[C@H](CC(N)=O)NC(=O)[C@H](C)NC(=O)[C@H](CC(C)C)NC(=O)[C@H](CCCNC(=N)N)NC(=O)[C@H](CCC(N)=O)NC(=O)[C@@H](NC(=O)[C@H](C)NC(=O)[C@@H]1CSSC[C@H](NC(=O)[C@@H](N)CCCCN)C(=O)N[C@@H](CC(N)=O)C(=O)N[C@@H]([C@@H](C)O)C(=O)N[C@@H](C)C(=O)N[C@@H]([C@@H](C)O)C(=O)N1)[C@@H](C)O)C(C)C)C(=O)N[C@@H](CC(C)C)C(=O)N1CCC[C@H]1C(=O)N1CCC[C@H]1C(=O)N[C@H](C(=O)N[C@@H](CC(N)=O)C(=O)N[C@H](C(=O)NCC(=O)N[C@@H](CO)C(=O)N[C@@H](CC(N)=O)C(=O)N[C@H](C(=O)N[C@@H](Cc1ccc(O)cc1)C(N)=O)[C@@H](C)O)C(C)C)[C@@H](C)O [Pramlintide] | –
4 | – | – | 0.9 | 1.8 | hAmylin: human amylin, non-lipidated (KCNTATCATQRLANFLVHSSNNFGAILSSTNVGSNTY; not fully specified (C-terminus, bridges); cysteine pairing not given here) | –
5 | 0.9 | 1.8 | – | – | hAmylin (from UniProt P10997 34-70) (peptide) | –
6 | – | – | 0.03 | 0.05 | petrelintide [DACRA 2] | –
7 | – | – | – | – | tirzepatide [GLP/GIP] | change in lean mass (g) [6, 7]: no effect at 2 nmol/kg; change in lean mass (g) [6, 8]: significant reduction vs. vehicle; body weight change [6, 7]: −1.7%; body weight change [6, 8]: −8.9%; body weight change ([6]; mono-treatment 10 nmol/kg SC QD): −8.1%; change in fat mass (g) ([6]; end of study (week 4), EchoMRI, FIG. 6C): dose-dependent decrease in fat mass; change in lean mass (g) ([6]; end of study, EchoMRI, mono-treatment, FIG. 6D): dose-dependent decrease of lean mass
8 | – | – | 0.14 | 0.24 | eloralintide [SARA 2] | –
9 | 0.14 | 0.24 | – | – | SARA 2 (eloralintide) (peptide) | –
10 | 0.01 | 0.08 | – | – | DACRA 1 (cagrilintide) (peptide) | –
